The values below come from PMC8162404, “Proteomimetic surface fragments distinguish targets by function” (Chemical Science, 2020).

What all share (experiment): Pull-down assay with immobilized protein and LSM libraries
The target in one assay is T1, CaM (Bos taurus, UniProt P62157).
T1 construct: made in house; host or cells: E. coli BL21 (DE3)
Format: binding, bovine. Conditions: 1:2 stoichiometry assumed, read-out: Surface mapping KD (apparent). The method, then:
Pull-down assays with immobilized test proteins and foldameric LSM libraries were carried out. Proteins were equilibrated with LSM probes, and equilibrium bound fractions (FB) were determined from the unbound fractions measured by HPLC-MS methods. Hits were corrected with background binding of the resin. The protocol allowed all binding events to equilibrate irrespective of affinity, specificity, and binding kinetics. This was essential to judge overall druggability and promiscuity. Importantly, the concentration of protein and the total concentration of foldameric LSMs were equimolar, which minimized competition between the probes. This experimental setup approximated independent binding of individual library members. Results were visualized as heat maps of dissociation constants (Fig. 3).
Pull-down assay and data analysis
Pull-down assay. LSM sublibraries were screened separately as previously described.(2) Experiments were performed in the following buffers: (i) 20 mM pH 7.4 HEPES, 150 mM NaCl, 5 mM CaCl2 for CaM; (ii) 50 mM pH 7.4 HEPES, 150 mM NaCl, 1 mM TCEP, 1 mM CaCl2 for S100 proteins; (iii) 20 mM pH 7.4 HEPES, 150 mM NaCl, 1 mM TCEP for Gal-1 and (iv) 20 mM pH 7.4 HEPES, 150 mM NaCl for RecQ-WH. Assays were performed in paper filter spin cups (Thermo Scientific) with sample volumes of 100 µl. Hexahistidine-tagged proteins were immobilized on previously washed Co-NTA resin (TALON, Takara Bio USA, Inc., […]
LSM sublibrary was added, in which each of the 64 library members were used at a concentration of 1 µM. Samples were incubated at room temperature for 30 min with shaking at 100 rpm. Then, samples were centrifuged at 1000 rpm for 2 min and washed with 100 µl pull-down buffer to remove unbound compounds.
The control experiments were performed using the same compounds and the resin but without the immobilized protein. In case of competitive assays, competitor peptides were added to LSM sublibrary samples in 200 µM final concentration. In the case of Gal-1, lactose (competitor) was used in a concentration of 10 mM. Experiments were performed at least twice. Mean […]
LC-MS methods and parameters. HPLC/ESI-MS analysis was used to characterize the samples from the pull-down assay. LC-MS analysis was performed with a Thermo Scientific Dionex UltiMate 3000 HPLC system interfaced to an LTQ ion trap mass spectrometer (Thermo Electron Corp., San Jose, CA, USA). Samples were injected onto an Aeris Widepore XB-C18 (250 x 4.6 mm) analytical HPLC column using gradient elution 5-80 % solution B during 25 minutes. For pull-down samples, eluent composition was 0.1% acetic acid in distilled water (Solution A) and 0.1% acetic acid in acetonitrile (solution B). Mass spectra were acquired in full scan mode from 200 to 2000 m/z range. For overlapping peaks, selective reaction monitoring (SRM) was […]
MS data analysis. Thermo Xcalibur 2.2 software was used for peak identification and integration. The majority of the foldameric fragments could be resolved independently via HPLC-MS/MS measurements based on molecular weight, MS fragmentation pattern and retention time. Peaks of some foldamers with β3-hIle or β3-hLeu in position R2 could not be resolved, these were integrated and averaged. In the processing method, each sample component was associated to a chromatographic peak based on previously identified mass (m/z) and retention time (ref (2) and Table S7-10). Using ICIS peak detection algorithm, the general detection and integration criteria were: smoothing points: 5, baseline window: 80, area noise factor: 5, peak noise factor: 10. Using these processing setups, all raw data files were reprocessed together and analyzed. Errors in peak identification during the automatic processing were corrected manually.
Calculation of the discussed parameters
1. Bound fractions (FB.) were calculated from the HPLC-MS intensity loss of the LSM probes compared to the control where no protein was immobilized to the resin: […]

The target in another assay is T2, S100B (Homo sapiens, UniProt P04271).
T2 construct: made in house; host or cells: Escherichia coli BL21(DE3)
T2 sequence (P04271 1-92): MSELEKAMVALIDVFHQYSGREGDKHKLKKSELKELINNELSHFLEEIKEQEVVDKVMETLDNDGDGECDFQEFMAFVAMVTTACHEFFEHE
Format: binding. Conditions: 1:1 binding assumed, read-out: Surface mapping KD (apparent). Summed up: (§1)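 Buffers were HEPES pH 7.4 with 150 mM NaCl, plus 1 mM TCEP and 1 mM CaCl2 (50 mM HEPES) for S100A4 and S100B, 1 mM TCEP for Gal-1, and no additive for RecQ-WH. Immobilized protein at 64 µM was equilibrated 30 min with the LSM sublibrary, and unbound probes were measured by LC-MS.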

A further assay has as its target T3, Gal-1 (Homo sapiens, UniProt P09382).
T3 construct: made in house; host or cells: E. coli BL21(DE3)
It is filed as binding. Conditions: 1:1 binding assumed, read-out: Surface mapping KD (apparent). In a few lines: as §1

Read-outs that look alike come from different tables or passages of the source.

T3 sequence (P09382 whole entry): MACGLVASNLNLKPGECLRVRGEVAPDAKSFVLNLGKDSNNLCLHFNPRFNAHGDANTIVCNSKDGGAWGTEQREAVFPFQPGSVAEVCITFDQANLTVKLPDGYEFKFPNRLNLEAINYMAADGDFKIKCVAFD

In the case of `C[C@@H](CC(=O)N[C@H]1CCC[C@@H]1C(=O)N[C@H]1CCC[C@@H]1C(N)=O)NC(=O)[C@H]1CCC[C@@H]1NC(=O)[C@H]1CCC[C@@H]1NC(=O)C[C@H](Cc1c[nH]c2ccccc12)NC(=O)[C@H]1CCC[C@@H]1NC(=O)[C@H]1CCC[C@@H]1N` [H12 WA], the Kd at CaM (H12 library) turned out to be 303 µM; at S100B (H12 library) it was 60 µM; on Gal-1 (H12 library), 385 µM.

For `CSCC[C@@H](CC(=O)N[C@H]1CCC[C@@H]1C(=O)N[C@H]1CCC[C@@H]1C(N)=O)NC(=O)[C@H]1CCC[C@@H]1NC(=O)[C@H]1CCC[C@@H]1NC(=O)C[C@H](Cc1ccc(O)cc1)NC(=O)[C@H]1CCC[C@@H]1NC(=O)[C@H]1CCC[C@@H]1N` [H12 YM], the Kd at CaM (H12 library) stood at 178 µM; on S100B (H12 library), 102 µM; on Gal-1 (H12 library), 286 µM.

As for `C[C@@H](O)[C@@H](CC(=O)N[C@H]1CCC[C@@H]1C(=O)N[C@H]1CCC[C@@H]1C(N)=O)NC(=O)[C@H]1CCC[C@@H]1NC(=O)[C@H]1CCC[C@@H]1NC(=O)C[C@H](Cc1c[nH]c2ccccc12)NC(=O)[C@H]1CCC[C@@H]1NC(=O)[C@H]1CCC[C@@H]1N` [H12 WT], the Kd on CaM (H12 library) was 365 µM; on S100B (H12 library), 56 µM; at Gal-1 (H12 library), 448 µM.

Turning to `C[C@@H](CC(=O)N[C@H]1CCC[C@@H]1C(=O)N[C@H]1CCC[C@@H]1C(=O)N[C@H](CC(=O)N[C@H]1CCC[C@@H]1C(=O)N[C@H]1CCC[C@@H]1C(N)=O)Cc1c[nH]c2ccccc12)NC(=O)[C@H]1CCC[C@@H]1NC(=O)[C@H]1CCC[C@@H]1N` [H12 AW], the Kd on CaM (H12 library) amounted to 234 µM; at S100B (H12 library) it was 62 µM; on Gal-1 (H12 library), 355 µM.

`CSCC[C@@H](CC(=O)N[C@H]1CCC[C@@H]1C(=O)N[C@H]1CCC[C@@H]1C(=O)N[C@H](CC(=O)N[C@H]1CCC[C@@H]1C(=O)N[C@H]1CCC[C@@H]1C(N)=O)Cc1ccc(O)cc1)NC(=O)[C@H]1CCC[C@@H]1NC(=O)[C@H]1CCC[C@@H]1N` [H12 MY]: the Kd was found to be 178 µM at CaM (H12 library), 102 µM on S100B (H12 library) and 286 µM at Gal-1 (H12 library).

Regarding `N=C(N)NCCC[C@@H](CC(=O)N[C@H]1CCC[C@@H]1C(=O)N[C@H]1CCC[C@@H]1C(N)=O)NC(=O)[C@H]1CCC[C@@H]1NC(=O)[C@H]1CCC[C@@H]1NC(=O)C[C@H](CCCCN)NC(=O)[C@H]1CCC[C@@H]1NC(=O)[C@H]1CCC[C@@H]1N` [H12 KR], the Kd on CaM (H12 library) amounted to 330 µM; on S100B (H12 library), 146 µM; on Gal-1 (H12 library) it was 231 µM.

With `CC(C)C[C@@H](CC(=O)N[C@H]1CCC[C@@H]1C(=O)N[C@H]1CCC[C@@H]1C(=O)N[C@H](CC(=O)N[C@H]1CCC[C@@H]1C(=O)N[C@H]1CCC[C@@H]1C(N)=O)C(C)C)NC(=O)[C@H]1CCC[C@@H]1NC(=O)[C@H]1CCC[C@@H]1N` [H12 LV], the Kd on CaM (H12 library) was determined as 270 µM; at S100B (H12 library) it was 116 µM; at Gal-1 (H12 library), 468 µM.

As for `NC(=O)[C@H]1CCC[C@@H]1NC(=O)[C@H]1CCC[C@@H]1NC(=O)C[C@H](Cc1c[nH]c2ccccc12)NC(=O)[C@H]1CCC[C@@H]1NC(=O)[C@H]1CCC[C@@H]1NC(=O)C[C@H](CO)NC(=O)[C@H]1CCC[C@@H]1NC(=O)[C@H]1CCC[C@@H]1N` [H12 SW], the values for the Kd at CaM (H12 library), at S100B (H12 library) and at Gal-1 (H12 library) were 41 µM, 114 µM and 459 µM, respectively.

In the case of `C[C@@H](CC(=O)N[C@H]1CCC[C@@H]1C(=O)N[C@H]1CCC[C@@H]1C(N)=O)NC(=O)[C@H]1CCC[C@@H]1NC(=O)[C@H]1CCC[C@@H]1NC(=O)C[C@H](Cc1ccccc1)NC(=O)[C@H]1CCC[C@@H]1NC(=O)[C@H]1CCC[C@@H]1N` [H12 FA], the figures for the Kd at CaM (H12 library), at S100B (H12 library) and on Gal-1 (H12 library) were 496 µM, 116 µM and 341 µM, respectively.

On to `NCCCC[C@@H](CC(=O)N[C@H]1CCCC[C@@H]1C(N)=O)NC(=O)[C@H]1CCCC[C@@H]1NC(=O)[C@H]1CCCC[C@@H]1NC(=O)C[C@H](CO)NC(=O)[C@H]1CCCC[C@@H]1N` [H14 SK], for which the values for the Kd at CaM (H14 library), at S100B (H14 library) and on Gal-1 (H14 library) were 91 µM, 181 µM and 438 µM, respectively.

As to `C[C@@H](CC(=O)N[C@H]1CCCC[C@@H]1C(=O)N[C@H]1CCCC[C@@H]1C(=O)N[C@@H](CCCNC(=N)N)CC(=O)N[C@H]1CCCC[C@@H]1C(N)=O)NC(=O)[C@H]1CCCC[C@@H]1N` [H14 AR], the Kd turned out to be 126 µM at CaM (H14 library), 126 µM at S100B (H14 library) and 348 µM at Gal-1 (H14 library).

Consider `N=C(N)NCCC[C@@H](CC(=O)N[C@H]1CCC[C@@H]1C(=O)N[C@H]1CCC[C@@H]1C(=O)N[C@@H](CCCCN)CC(=O)N[C@H]1CCC[C@@H]1C(=O)N[C@H]1CCC[C@@H]1C(N)=O)NC(=O)[C@H]1CCC[C@@H]1NC(=O)[C@H]1CCC[C@@H]1N` [H12 RK], for which the Kd was determined as 330 µM on CaM (H12 library), 146 µM on S100B (H12 library) and 231 µM on Gal-1 (H12 library).

For `CSCC[C@@H](CC(=O)N[C@H]1CCC[C@@H]1C(=O)N[C@H]1CCC[C@@H]1C(=O)N[C@H](CC(=O)N[C@H]1CCC[C@@H]1C(=O)N[C@H]1CCC[C@@H]1C(N)=O)C(C)C)NC(=O)[C@H]1CCC[C@@H]1NC(=O)[C@H]1CCC[C@@H]1N` [H12 MV], the Kd on CaM (H12 library) was determined as 342 µM; on S100B (H12 library), 127 µM; at Gal-1 (H12 library), 247 µM.

Turning to `C[C@@H](O)[C@@H](CC(=O)N[C@H]1CCCC[C@@H]1C(N)=O)NC(=O)[C@H]1CCCC[C@@H]1NC(=O)[C@H]1CCCC[C@@H]1NC(=O)C[C@H](CCCNC(=N)N)NC(=O)[C@H]1CCCC[C@@H]1N` [H14 RT], the Kd on CaM (H14 library) was found to be 124 µM; on S100B (H14 library) it was 324 µM.

As to `C[C@@H](CC(=O)N[C@H]1CCCC[C@@H]1C(=O)N[C@H]1CCCC[C@@H]1C(=O)N[C@@H](CCCCN)CC(=O)N[C@H]1CCCC[C@@H]1C(N)=O)NC(=O)[C@H]1CCCC[C@@H]1N` [H14 AK], the results for the Kd on CaM (H14 library) and on S100B (H14 library) were 181 µM and 180 µM, respectively.

On to `CC[C@H](C)[C@@H](CC(=O)N[C@H]1CCC[C@@H]1C(=O)N[C@H]1CCC[C@@H]1C(N)=O)NC(=O)[C@H]1CCC[C@@H]1NC(=O)[C@H]1CCC[C@@H]1NC(=O)C[C@H](CCCCN)NC(=O)[C@H]1CCC[C@@H]1NC(=O)[C@H]1CCC[C@@H]1N` [H12 KI], for which the figures for the Kd at CaM (H12 library), at S100B (H12 library) and on Gal-1 (H12 library) were 314 µM, 71 µM and 250 µM, respectively.

With `NCCCC[C@@H](CC(=O)N[C@H]1CCCC[C@@H]1C(=O)N[C@H]1CCCC[C@@H]1C(=O)N[C@@H](CO)CC(=O)N[C@H]1CCCC[C@@H]1C(N)=O)NC(=O)[C@H]1CCCC[C@@H]1N` [H14 KS], the Kd at CaM (H14 library) was 262 µM; on S100B (H14 library), 217 µM.

For `NC(=O)C[C@@H](CC(=O)N[C@H]1CCC[C@@H]1C(=O)N[C@H]1CCC[C@@H]1C(=O)N[C@H](CC(=O)N[C@H]1CCC[C@@H]1C(=O)N[C@H]1CCC[C@@H]1C(N)=O)Cc1c[nH]c2ccccc12)NC(=O)[C@H]1CCC[C@@H]1NC(=O)[C@H]1CCC[C@@H]1N` [H12 NW], the Kd on CaM (H12 library) was 63 µM; on S100B (H12 library) it was 155 µM.
